Columns and labels:
enterocytes [1] = test: Phosphorylated p38 and ERK in enterocytes exposed to LPS and CpG (Western blot); format: cell-based
Procedure: FIG. 6A-C. LPS signaling is attenuated by the TLR9 ligand CpG-DNA in enterocytes. (A) Comparison of phosphorylated p38 versus total p38 in a negative control, in the presence of 50 μg/ml LPS, in the presence of 50 μg/ml LPS and 10 μM CpG, and in the presence of 10 μM CpG. (B) Comparison of phosphorylated ERK versus total ERK in a negative control, in the presence of LPS, in the presence of LPS and CpG, and in the presence of CpG. (C) Bar graph showing the results of A.
A first series of experiments was designed to study the consequences of the TLR4 activator LPS and a CpG TLR9 agonist on the mediators of activated TLR4, p38 and ERK. Throughout this example section, the CpG used was CpG ODN, 5′-[…]-3′ (SEQ ID NO:6) P38 and ERK are both phosphorylated in their activated form. As shown in FIG. 6A-C, the relative levels of phosphorylated p38 and ERK increased when enterocytes were exposed to LPS.

enterocytes [2] = test: LPS-mediated cytokine (IL-6) release from enterocytes; format: cell-based; conditions: 50 μg/ml LPS + 10 μM CpG
Procedure: FIG. 8. CpG-DNA reduces LPS-mediated cytokine release from enterocytes. Bar graph showing the level of supernatant IL-6 in enterocytes which were either untreated (“CTRL”) or treated with 50 μg/ml LPS, 50 m/ml LPS+10 μM CpG, or 10 μM CpG.

IEC-6 cells = test: TLR4 and TLR9 expression and distribution in enterocytes (Western blot, immunofluorescence); format: cell-based
Excerpt: FIG. 12. TLR4 and TLR9 expression are unchanged by CpG-DNA and LPS in enterocytes. Western blot showing levels of TLR4 and TLR9 (relative to actin) in enterocytes which were either untreated (Ctrl) or treated with LPS, LPS+CpG, or CpG.
FIG. 13A-E. CpG-DNA causes a redistribution of TLR4 into internal structures in IEC-6 cells. Immunofluorescence studies showing TLR4 distribution in IEC-6 cells which were either untreated (A) or treated with (B) LPS; (C) LPS+CpG; or (D) CpG. (E) is a schematic drawing showing redistribution of TLR4 caused by TLR9.
FIG. 14A-D. LPS causes the internalization of TLR9, which is reversed by CpG-DNA. Immunofluoresence studies of IEC-6 cells showing TLR9 distribution in cells which were either (A) untreated; or treated with (B) LPS; (C) LPS+CpG; or (D) CpG.
Further experiments were performed to study the mechanism by which TLR9 suppresses the TLR4 activation.

[3] = tested on: experimental NEC in newborn mice; test: Murine NEC model in NFkB-GFP transgenic mice (histology, mucosal TNF-α RTPCR, NFκB activation); format: in vivo, mouse; conditions: NEC mice
Procedure: FIG. 27A-G. CpG-ODN-HS and CpG-DNA reduce the development of experimental NEC in vivo in newborn mice. Newborn NEC and control mice were injected with CpG-ODN-HS or CpG-DNA. A. Histology (H&E) of terminal ileum of breast fed mouse. B. Histology (H&E) of terminal ileum of mouse after induction of NEC. C. Histology (H&E) of terminal ileum of mouse treated with CpG-DNA, after which conditions which induced NEC were applied. D. Histology (H&E) of terminal ileum of mouse treated with CpG-ODN-HS, after which conditions which induced NEC were applied. E. Histology (H&E) of terminal ileum of breast fed mouse treated with CpG-ODN-HS. F. Histology (H&E) of terminal ileum of breast fed mouse treated with CpG-DNA. G. Severity of NEC in newborn mice as scored by a blinded pediatric pathologist. *p<0.05 vs. NEC in saline-injected mice.
FIG. 28. CpG-ODN-HS and CpG-DNA reduce the expression of mucosal TNF-α in NEC newborn mice in vivo.
FIG. 29A-D. Confocal microscopy showing the extent of NFkB activation in mice with NEC in the absence or presence of CpG-ODN-HS. CpG-ODN-HS reduces the level of NFkB activation in NEC newborn mice in vivo. The mice express NFkB-GFP, and sections were stained with anti-GFP antibody (red; arrow).
The effect of the TLR9 agonist CpG-ODN 5′ […] 3′ (SEQ ID NO:10; referred to herein as CpG-ODN-HS) on the mediator of activated TLR4, NFκB, was examined in a murine NEC model (previously described, above). The effect of CpG-ODN-HS on inflammation in the NEC murine model was also examined as a measured by TNF-α expression, which is an index of inflammation.
Materials and methods. Phosphorothioated CpG-ODN-HS and oligodeoxynucleotide (ODN) 1826 ([…]) (SEQ ID NO:6; referred to herein as CpG-DNA) were synthesized by the University of Pittsburgh DNA synthesis facility. ODNs were confirmed to be endotoxin-free by Limulus assay. NFkB-GFP antibody was obtained from Santa Cruz and Abcam. The extent of nuclear translocation was determined in an adaptation of the methodology of Ding and colleagues. In brief, a threshold limit was set based upon the emission signal for the nuclear stain DRAQ5, which therefore defined a nuclear region of interest (ROI). To define a corresponding cytoplasmic region of interest, a circular region 12 pixels beyond the nucleus was stenciled upon each cell. The average integrated pixel intensity pertaining to the corresponding NFkB emission within the cytoplasmic and nuclear regions was then determined for more than 200 cells per treatment group in at least four experiments per group, using MetaMorph software version 6.1 (Molecular Devices Corporation, Downingtown, Pa.).
Mucosal TNF-α expression was measured using quantitative real-time PCR (RTPCR). Quantitative real-time PCR in cultured enterocytes and intestinal tissue using the BioRad iCycler (Biorad, Hercules, CA) was performed as in (Leaphart, C. L., J. Cavallo, S. C. Gribar, S. Cetin, J. Li, M. F. Branca, T. D. Dubowski, C. P. Sodhi, and D. J. Hackam. 2007. A Critical Role for TLR4 in the Pathogenesis of Necrotizing Enterocolitis by Modulating Intestinal Injury and Repair. J Immunology 179:4808-4820). Oligonucleotide primer pairs used for RTPCR were as follows: forward: 5′ […] 3′ (SEQ ID NO:14), reverse: 5′ […] 3′ (SEQ ID NO:15); and forward: 5′ […] 3′ (SEQ ID NO:16), reverse: 5′ […] 3′ (SEQ ID NO:17). Gene expression was normalized to β-actin expression. Where indicated, gene expression was assessed on 2.5% agarose gels using ethidium bromide staining. […]

## 5′-TCCATGACGTTCCTGACGTT-3′ [CpG-DNA]
Enterocytes [1]; 50 μg/ml LPS + 10 μM CpG vs LPS alone
  relative level of phosphorylated p38 (increase caused by LPS): significantly less
Enterocytes [1]; LPS + CpG vs LPS alone
  relative level of phosphorylated ERK (increase caused by LPS): significantly less
Enterocytes [2]
  LPS-mediated cytokine release (supernatant IL-6): reduces
IEC-6 cells; IEC-6 cells, LPS + CpG
  LPS-caused internalization of TLR9: reversed
IEC-6 cells; IEC-6 cells, immunofluorescence
  TLR4 distribution: causes a redistribution of TLR4 into internal enterocyte structures
IEC-6 cells; enterocytes treated with CpG-DNA and LPS
  TLR4 and TLR9 expression: unchanged
[3]; RTPCR
  level of expression of mucosal TNF-α in terminal ileum: reduced
[3]; treated vs untreated
  NEC pathology (histology of terminal ileum): inhibition of the NEC pathology

Reference: patent US8518903B2, “Use of toll-like receptor-9 agonists” (University of Pittsburgh—of the Commonwealth System of …, priority 2007, dated 2013)
